Measurements published in BindingDB's records for doi:10.1021/jm9804127 (Glaxo Wellcome Research and Development, 1999).

Target: T1, Peroxisome proliferator-activated receptor gamma (Homo sapiens, UniProt P37231)
T1 sequence (P37231 whole entry): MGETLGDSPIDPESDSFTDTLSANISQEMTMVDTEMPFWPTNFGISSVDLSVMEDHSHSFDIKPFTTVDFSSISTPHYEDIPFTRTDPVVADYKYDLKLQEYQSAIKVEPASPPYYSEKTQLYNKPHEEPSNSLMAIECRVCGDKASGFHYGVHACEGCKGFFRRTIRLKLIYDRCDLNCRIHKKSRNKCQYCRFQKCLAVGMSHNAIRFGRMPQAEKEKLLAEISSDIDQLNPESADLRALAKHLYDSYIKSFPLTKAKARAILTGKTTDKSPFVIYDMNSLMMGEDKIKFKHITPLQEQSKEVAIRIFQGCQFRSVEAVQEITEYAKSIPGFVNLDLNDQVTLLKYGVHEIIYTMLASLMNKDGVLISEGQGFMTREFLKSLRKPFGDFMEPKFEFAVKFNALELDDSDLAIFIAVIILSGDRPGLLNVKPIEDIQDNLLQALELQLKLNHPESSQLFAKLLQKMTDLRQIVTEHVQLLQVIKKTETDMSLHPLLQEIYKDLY
Assay: Ability to promote differentiation of C3H10T1/2 stem cells to adipocytes using lipogenesis assay mediated through activation of Peroxisome proliferator activated receptor gamma

**Q.** Which EC50 does the source give for `CN(CCOc1ccc(CC(Nc2ccccc2C(N=N)c2ccccc2)C(=O)O)cc1)c1ccccn1` (configuration not stated) here?
**A.** The EC50 was 1230 nM.

Target: not listed separately
Assay: Ability to promote differentiation of C3H10T1/2 stem cells to adipocytes using lipogenesis assay mediated through activation of Peroxisome proliferator activated receptor gamma

**Q.** With `CN(CCOc1ccc(CC(Nc2ccccc2Oc2ccccc2)C(=O)O)cc1)c1nc2ccccc2o1` (configuration not stated) as the molecule, how does the EC50 read?
**A.** The EC50 was 468 nM.

**Q.** With `CN(CCOc1ccc(CC(Nc2ccccc2C(O)c2ccccc2)C(=O)O)cc1)c1ccccn1` (configuration not stated) as the molecule, how does the EC50 read?
**A.** Its EC50 is 1320 nM.

**Q.** With `CC1(COc2ccc(C[C@H](Nc3ccccc3C(=O)c3ccccc3)C(=O)O)cc2)CCCCC1` as the molecule, how does the EC50 read?
**A.** The EC50 was 1150 nM.

**Q.** Which EC50 does the source give for `Cc1c(C)c2c(c(C)c1O)CCC(C)(COc1ccc(C[C@H](Nc3ccccc3C(=O)c3ccccc3)C(=O)O)cc1)O2` (some centres not stated) here?
**A.** The EC50 was 363 nM.

**Q.** Which EC50 does the source give for `CN(CCOc1ccc(C[C@H](Nc2ccccc2C(=O)c2ccccc2)C(=O)O)cc1)c1nc2ccccc2o1` here?
**A.** The EC50 was 4.4 nM.

**Q.** For `CN(CCOc1ccc(CC(Nc2cccc3c2C(=O)c2ccccc2-3)C(=O)O)cc1)c1nc2ccccc2o1` (configuration not stated), which EC50 is on record?
**A.** Its EC50 is 575 nM.

**Q.** Which EC50 does the source give for `CN(CCOc1ccc(CC(Nc2ccccc2C(=O)Cc2ccccc2)C(=O)O)cc1)c1nc2ccccc2o1` (configuration not stated) here?
**A.** Its EC50 is 47 nM.

**Q.** With `CCc1ccc(CCOc2ccc(C[C@H](Nc3ccccc3C(=O)c3ccccc3)C(=O)O)cc2)nc1` as the molecule, how does the EC50 read?
**A.** Its EC50 is 501 nM.

**Q.** With `O=C(c1ccccc1)c1ccccc1N[C@@H](Cc1ccc(OCc2ccccc2)cc1)C(=O)O` as the molecule, how does the EC50 read?
**A.** Its EC50 is 1510 nM.

**Q.** Which EC50 does the source give for `CN(CCOc1ccc(CC(Oc2ccccc2C(=O)c2ccccc2)C(=O)O)cc1)c1nc2ccccc2o1` (configuration not stated) here?
**A.** Its EC50 is 1150 nM.

**Q.** Which EC50 does the source give for `CN(CCOc1ccc(CC(Nc2ccccc2S(=O)(=O)c2ccccc2)C(=O)O)cc1)c1nc2ccccc2o1` (configuration not stated) here?
**A.** Its EC50 is 2190 nM.
